According to ChEMBL document CHEMBL1123303, “Synthesis of 2-(4-substituted-1-piperazinyl)benzimidazoles as H1-antihistaminic agents” (J Med Chem, 1986):

What was measured:
[1] = target: Histamine H1 receptor (Cavia porcellus, UniProt P31389); assay: In vitro inhibition of histamine-induced contractions in guinea pig ileum; assay type: functional, tissue-based
[2] = In vivo for the inhibition of histamine-induced mortality in guinea pig; assay type: functional; conditions: Cavia porcellus

Sequence of Histamine H1 receptor (P31389 whole entry): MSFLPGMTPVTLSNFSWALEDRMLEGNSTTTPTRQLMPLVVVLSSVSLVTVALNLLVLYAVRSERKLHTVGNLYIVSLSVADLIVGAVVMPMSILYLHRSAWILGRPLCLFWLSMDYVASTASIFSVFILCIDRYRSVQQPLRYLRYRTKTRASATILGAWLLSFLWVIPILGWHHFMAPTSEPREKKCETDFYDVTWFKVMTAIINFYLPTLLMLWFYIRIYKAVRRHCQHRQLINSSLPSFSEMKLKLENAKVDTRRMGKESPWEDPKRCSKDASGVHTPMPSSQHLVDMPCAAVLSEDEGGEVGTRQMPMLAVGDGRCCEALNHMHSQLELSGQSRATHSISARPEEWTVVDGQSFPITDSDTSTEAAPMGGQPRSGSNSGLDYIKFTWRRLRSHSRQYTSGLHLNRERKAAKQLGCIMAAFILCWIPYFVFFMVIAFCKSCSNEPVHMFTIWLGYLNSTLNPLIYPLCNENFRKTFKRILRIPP

Row | Compound | IC50 [1] | ED50 [2]
1 | CN1CCN(c2nc3ccccc3n2-c2ccccc2)CC1 | 760 nM | –
2 | CCCC(C)Cn1c(N2CCN(C)CC2)nc2ccccc21 (configuration not stated) | 1500 nM | –
3 | CN1CCN(c2nc3ccccc3n2Cc2ccccc2)CC1 | 17 nM | > 0.05 mg/kg
4 | CCCOCn1c(N2CCN(C)CC2)nc2ccccc21 | 18 nM | > 0.1 mg/kg
5 | CCOCCn1c(N2CCCN(CC)CC2)nc2ccccc21 | 16 nM | 0.032 mg/kg
6 | CCCCCn1c(N2CCN(C)CC2)nc2ccccc21 | 19 nM | 0.19 mg/kg
7 | COCCCn1c(N2CCN(C)CC2)nc2ccccc21 | 860 nM | > 0.1 mg/kg
8 | CCCC(C)n1c(N2CCN(C)CC2)nc2ccccc21 (configuration not stated) | 1400 nM | –
9 | CCSCCCn1c(N2CCN(C)CC2)nc2ccccc21 | 530 nM | –
10 | CCOCCn1c(N2CCN(Cc3ccccc3)CC2)nc2ccccc21 | 27 nM | 0.039 mg/kg
11 | CCOCCn1c(N2CCN(c3ccccc3)CC2)nc2ccccc21 | > 10000 nM | –
12 | CN1CCN(c2nc3ccccc3n2CCc2ccccc2)CC1 | 240 nM | –
13 | CCCCN1CCCN(c2nc3ccccc3n2CCOCC)CC1 | 8.4 nM | 0.12 mg/kg
14 | CN1CCN(c2nc3ccccc3n2CCOCc2ccccc2)CC1 | 430 nM | > 0.1 mg/kg
15 | C=CCOCCn1c(N2CCN(C)CC2)nc2ccccc21 | 17 nM | –
16 | CCSCCn1c(N2CCN(C)CC2)nc2ccccc21 | 19 nM | 0.28 mg/kg
17 | CCCCCCCCCCn1c(N2CCN(C)CC2)nc2ccccc21 | 4200 nM | –
18 | CCCCCCCn1c(N2CCN(C)CC2)nc2ccccc21 | 150 nM | –
19 | CCOCCn1c(N2CCN(CC)CC2)nc2ccccc21 | 18 nM | –
20 | CCCn1c(N2CCN(C)CC2)nc2ccccc21 | 380 nM | –
21 | CN1CCN(c2nc3ccccc3n2CCOCCO)CC1 | 42 nM | 0.051 mg/kg
22 | C=COCCn1c(N2CCN(C)CC2)nc2ccccc21 | 10 nM | 0.023 mg/kg
23 | CCCN1CCN(c2nc3ccccc3n2CCOCC)CC1 | 16 nM | 0.021 mg/kg
24 | CCCCCN1CCN(c2nc3ccccc3n2CCOCC)CC1 | 30 nM | > 0.1 mg/kg
25 | C=CCOCCn1c(N2CCCN(C)CC2)nc2ccccc21 | 10 nM | –
26 | CCCOCCn1c(N2CCCN(C)CC2)nc2ccccc21 | 16 nM | –
27 | CCOCCn1c(N2CCCN(Cc3ccccc3)CC2)nc2ccccc21 | 15 nM | > 0.1 mg/kg

Row | Compound | IC50 [1] | ED50 [2]
28 | CN1CCN(c2nc3ccccc3[nH]2)CC1 | > 3000 nM | –
29 | CCCCOCCn1c(N2CCCN(C)CC2)nc2ccccc21 | 10 nM | > 0.1 mg/kg
30 | CCCCCCN1CCN(c2nc3ccccc3n2CCOCC)CC1 | 8.6 nM | > 0.1 mg/kg
31 | CCCOCCn1c(N2CCN(C)CC2)nc2ccccc21 | 20 nM | –
32 | CCOCCn1c(N2CCN(C=O)CC2)nc2ccccc21 | > 3000 nM | –
33 | CCOCCn1c(N2CCCNCC2)nc2ccccc21 | 25 nM | 0.041 mg/kg
34 | CCCCCN1CCCN(c2nc3ccccc3n2CCOCC)CC1 | 7.4 nM | > 0.05 mg/kg
35 | CCCCOCCn1c(N2CCN(C)CC2)nc2ccccc21 | 38 nM | > 0.1 mg/kg
36 | CN1CCN(c2nc3ccccc3n2CCOc2ccccc2)CC1 | 6.9 nM | –
37 | CCCSCn1c(N2CCN(C)CC2)nc2ccccc21 | 68 nM | –
38 | C#CCOCCn1c(N2CCN(C)CC2)nc2ccccc21 | 12 nM | –
39 | CN1CCN(c2nc3ccccc3n2C)CC1 | 320 nM | –
40 | CN1CCN(c2nc3ccccc3n2CCO)CC1 | 410 nM | –
41 | CCOCCn1c(N2CCNCC2)nc2ccccc21 | 11 nM | –
42 | CCCCn1c(N2CCN(C)CC2)nc2ccccc21 | 50 nM | –
43 | CCCCCCn1c(N2CCN(C)CC2)nc2ccccc21 | 26 nM | –
44 | CCCCN1CCN(c2nc3ccccc3n2CCOCC)CC1 | 15 nM | > 0.1 mg/kg
45 | CC(C)CCn1c(N2CCN(C)CC2)nc2ccccc21 | 1400 nM | –
46 | COCCn1c(N2CCN(C)CC2)nc2ccccc21 | 13 nM | > 0.05 mg/kg
47 | C#CCOCCn1c(N2CCCN(C)CC2)nc2ccccc21 | 9.9 nM | –
48 | CCOCCn1c(N2CCN(C(c3ccccc3)c3ccccc3)CC2)nc2ccccc21 | > 3000 nM | –
49 | CCOCCn1c(N2CCN(CCc3ccccc3)CC2)nc2ccccc21 | 31 nM | > 0.1 mg/kg
50 | CCCN1CCCN(c2nc3ccccc3n2CCOCC)CC1 | 8.4 nM | > 0.1 mg/kg
51 | CN1CCCN(c2nc3ccccc3n2CCOc2ccccc2)CC1 | 9.1 nM | –
52 | CCOCCn1c(N2CCN(C)CC2)nc2ccccc21 | 10 nM | –
53 | CCOCCn1c(N2CCCN(C)CC2)nc2ccccc21 [EMEDASTINE] | 6.1 nM | 0.0044 mg/kg
